Measurements taken from patent US9540299B2, “MTOR-independent activator of TFEB for autophagy enhancement and uses thereof” (Hong Kong Baptist University, priority 2015, dated 2017).

Key:
Format in all cases: cell-based
[1] = target: T1, 3×Flag-TFEB (Homo sapiens, UniProt P19484); experiment: Nuclear translocation of Flag-TFEB in Hela cells stably expressing 3×Flag-TFEB (immunostaining, western blot); conditions: analogs 1 μM, curcumin 10 μM, 12 h, Torin 1 1 μM, 2 h
T1 construct: expressed in transfected cells
T1 sequence (P19484 1-476): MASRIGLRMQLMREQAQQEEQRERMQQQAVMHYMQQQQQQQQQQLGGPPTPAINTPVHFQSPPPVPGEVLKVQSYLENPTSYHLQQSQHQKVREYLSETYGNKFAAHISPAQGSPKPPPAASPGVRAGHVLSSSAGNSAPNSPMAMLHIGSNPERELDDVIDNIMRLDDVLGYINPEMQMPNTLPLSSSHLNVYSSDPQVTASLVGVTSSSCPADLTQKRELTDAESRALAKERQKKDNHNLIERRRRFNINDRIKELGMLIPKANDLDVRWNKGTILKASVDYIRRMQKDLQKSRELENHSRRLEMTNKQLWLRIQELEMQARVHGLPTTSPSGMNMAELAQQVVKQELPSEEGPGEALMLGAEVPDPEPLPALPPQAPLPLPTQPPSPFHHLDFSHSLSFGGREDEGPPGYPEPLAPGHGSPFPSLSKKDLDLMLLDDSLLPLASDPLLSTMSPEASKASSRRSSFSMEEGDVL
Protocol: Cells were treated with curcumin (Cur, 10 μM), A2, B3 and C1 (1 μM) for 12 h. […] Data is quantified by ImageJ software and is presented as mean±SD of three replicates for each treatment conditions. At least 1000 cells are analyzed in each treatment group. *p<0.05 vs. the control (0.1% DMSO). FIG. 4C is a western blot showing the expression of endogenous TFEB. […] Data are presented as the mean±SD from three independent experiments. *p<0.05 vs. the control (0.1% DMSO). FIG. 4E is fluorescence images showing expression of 3×Flag-TFEB in Hela cells having treated with Cur (10 μM), A2, B3 and C1 (1 μM) for 12 h. Torin 1 (1 μM) treatment for 2 h is used as a positive control. Cells were fixed and stained with anti-Flag antibody. […] FIG. 4G is the western blot showing the expression of Flag-tagged TFEB in the cytosolic (Cyt.) and nuclear (Nuc.) fractions. ACTB and H3F3A (H3 histone, family 3A) are used as loading control of cytoplasmic and nuclear fraction, respectively. FIG. 4H is showing the relative intensity of TFEB in the cytosolic and nuclear fractions. Data are presented as the mean±SD from three independent experiments. *p<0.05 vs. the control (0.1% DMSO).
HeLa cells stably expressing 3×Flag-TFEB are treated with curcumin analogs E2, E3 and E4 (1 μM) for 12 hours. Torin 1 (1 μM) treatment for 2 hours is used as a positive control. Cells are fixed and stained with anti-Flag antibody (red) and DAPI (blue) (FIG. 18A). TFEB translocate into nucleus are quantified (FIG. 18B). Quantification data are presented as mean±SD of three replicates in a representative experiment. At least 500 cells are analyzed in each treatment group.
HeLa cells stably expressing 3×Flag-TFEB are treated with curcumin analogs E2, E3 and E4 (1 μM) for 12 hours. Torin 1 (1 μM) treatment for 2 hours is used as a positive control. The expression of TFEB in the cytosolic (Cyt.) and nuclear (Nuc.) fractions are determined by western blotting (FIG. 19A) and quantified (FIG. 19B). TUBB (β-tubulin) and H3F3A (H3 histone, family 3A) are used as loading control of cytoplasmic and nuclear fraction respectively. Quantification data are presented as the mean±SD from three independent experiments. *p<0.05 vs. the control (0.1% DMSO).
(§1) N2a, Hela and Hela cells stably expressing 3×-Flag-TFEB are cultured in DMEM supplemented with 10% FBS. SH-SY5Y cells are cultured in DMEM/F12 supplemented with 10% FBS. For drug treatment, the full medium is replaced by fresh Opti-MEM I and then the compounds (in 0.1% DMSO) are added to the cells and incubated for 12 h. Inducible PC12 cells overexpressing SNCA (WT and A53T) (a kind gift from Prof. David C. Rubinsztein at Cambridge University) are grown in DMEM supplemented with 10% horse serum, 5% FBS, 50 μg/ml G418, and 150 μg/ml hygromycin B at 37° C., 10% CO2. Cells are treated with 2 μg/ml doxycycline (Dox) for 24 h to induce SNCA expression. The full medium is changed to Opti-MEM I containing the testing compounds for another 48 h.
(§2) Cells are lysed on ice in 1× Lysis Buffer (9803, Life Technologies) with complete protease inhibitor mixture (04693124001, Roche Applied Science). Animal tissues are homogenized in nine volumes of ice-cold PBS supplemented with protease inhibitors. Cytosolic and nuclear fractions are isolated using protocols similar to those described previously. Anti-Flag or TFEB antibody is added to the whole cell lysates and Dynabeads® Protein G (10003D, Life Technologies) is used for immunoprecipitation. Proteins are separated by 10-15% SDS-PAGE, transferred, and blotted with the antibodies described. The blots are then incubated with secondary antibodies or the Clean-Blot IP Detection Reagent (21230, Thermo Scientific) at room temperature for 1 h. The protein signals are detected by ECL kit (32106, Pierce) and quantified using ImageJ software.
Cells are seeded on coverslips placed in 24-well plates. […]

[2] = test system: wild-type (WT) SNCA; experiment: Degradation of HA-tagged wild-type SNCA in inducible PC12 cells; conditions: for degradation of SNCA WT: Dox 24 h then 48 h, curcumin 10 μM, analogs 1 μM
Protocol: (§3) Expression and intensity of HA-tagged wild-type (WT) or A53T mutant SNCA in inducible PC12 cells are treated with doxycycline (Dox, 2 μg/ml) for 24 h, and then treated with curcumin (10 μM), A2, B3 and C1 (1 μM) for another 48 h (A, C) in the presence or absence of chloroquine (CQ, 20 μM) and wortmannin (WM, 1 μM) (B, D). The expression of HA-SNCA is determined by western blots and quantified from three independent experiments. Corynoxine B (Cory B, 25 μM) is used as a positive control. Relative intensity is normalized to that of ACTB/β-actin. Data are presented as the mean±SD from three independent experiments. *p<0.05 vs. the control (0.1% DMSO).
as §1, §2
(§4) Inducible PC12 cells are treated with doxycycline (Dox, 2 μg/ml) for 24 h to induce the expression of HA-tagged wild-type (WT) or A53T mutant SNCA, and then treated with curcumin (10 μM), A2, B3 and C1 (1 μM) for another 48 h (FIGS. 8 A, C) in the presence or absence of chloroquine (CQ, 20 μM) and wortmannin (WM, 1 μM) (FIGS. 8 B, D). The expression of HA-SNCA is determined by western blots and quantified from three independent experiments. Corynoxine B (Cory B, 25 μM) is used as a positive control. […] Corynoxine B (Cory B) is used as a positive control.

[3] = test system: A53T mutant SNCA; experiment: Degradation of HA-tagged A53T mutant SNCA in inducible PC12 cells; conditions: for degradation of SNCA A53T: Dox 24 h then 48 h, curcumin 10 μM, analogs 1 μM
Protocol: as §3, §1, §2, §4

Compound	nuclear translocation of Flag-TFEB [1]	degradation of SNCA WT ([2]; inducible PC12 cells)	degradation of SNCA A53T ([3]; inducible PC12 cells)	activity in degrading SNCA in presence of wortmannin (WM) or CQ ([2]; SNCA WT, WM 1 μM, CQ 20 μM, 1 μM compound)	SNCA clearance, comparison among compounds ([2]; inducible PC12 cells, SNCA WT)	activity in degrading SNCA in presence of wortmannin (WM) or CQ ([3]; SNCA A53T, WM 1 μM, CQ 20 μM, 1 μM compound)	SNCA clearance, comparison among compounds ([3]; inducible PC12 cells, SNCA A53T)
O=C(/C=C/c1ccccc1Br)/C=C/c1ccccc1Br [E3]	significantly promote						
O=C(/C=C/c1cccc(C(F)(F)F)c1)/C=C/c1cccc(C(F)(F)F)c1 [A2, 1,5-bis(3-(trifluoromethyl)phenyl)penta-1,4-dien-3-one]	no effects	significantly degrade	significantly degrade				
O=C(/C=C/c1ccccc1I)/C=C/c1ccccc1I [E4]	significantly promote						
O=C(/C=C/c1ccc(O)cc1)/C=C/c1ccc(O)cc1 [B3, 1,5-bis(4-hydroxyphenyl)penta-1,4-dien-3-one]	no effects	significantly degrade	significantly degrade				
O=C(/C=C/c1ccccc1Cl)/C=C/c1ccccc1Cl [E2]	significantly promote						
COc1cc(/C=C/C(=O)CC(=O)/C=C/c2ccc(O)c(OC)c2)ccc1O [curcumin, Curcumin, reference compound]	no effects	no effect	promotes the degradation				
COc1ccccc1/C=C/C(=O)/C=C/c1ccccc1OC [C1, 1,5-bis(2-methoxyphenyl)penta-1,4-dien-3-one]	significantly promotes	significantly degrade	significantly degrade	significantly blocked	best effects	significantly blocked	best effects
